The record followed here is patent US11472845B2, “Antitumor peptide and use thereof” (TOAGOSEI CO., LTD., priority 2019, dated 2022).

Like-named read-outs stand apart in the source and are kept apart here. Ends that are not written are not given here.

This series has as its system human breast cancer cell lines (MDA-MB-231). The series is classed as cell-based. The following applies: for Cell viability (%) of test cells: human, 48 h. As to the method: The antitumor activity of Sample 1 synthesized in the above Test Example 1 with respect to human-derived cultured tumor cells was evaluated. Currently commercially available human gastric cancer cell lines (FU97), human alveolar basal epithelial adenocarcinoma cell lines (A549), human breast cancer cell lines (MDA-MB-231), and human melanoma cell lines (A375) were prepared as test tumor cells. In addition, normal human mammary epithelial cell culture lines (MCF-12F) were prepared for comparison. A DMEM culture medium including 0.1 mM of non-essential amino acids, 50 unit/mL of penicillin, 50 μg/mL of streptomycin, and 10% FBS. The above five types of cell lines were cultured in respective designated culture solutions. The cell lines were cultured so that the number of cells per well in a 96-hole (well) plate was about 5×10^3. Here, an amount of the culture solution per well was 100 μL. The 96-well plate was then placed in a CO2 incubator. Then, pre-incubation was performed under conditions of 37° C. and 5% CO2 for about 1 day (about 23 hours). Then, regarding the culture solution for the peptide addition area, culture solutions containing Sample 1 for each concentration were prepared so that the concentration of Sample 1 was 6.25 μM, 12.5 μM or 25 μM and supplied to wells (that is, wells after the pre-incubation) in which 90 μL of cells to be evaluated were cultured in each well. On the other hand, regarding the culture solution for the comparative test area, a culture solution to which no Sample 1 was added was prepared, and supplied to wells (that is, wells after the pre-incubation) in which 90 μL of cells to be evaluated were cultured in each well. The 96-well plate was then placed in a CO2 incubator, and incubated under conditions of 37° C. and 5% CO2 for 48 hours. […] Then, the absorbance at a wavelength of 450 nm (value corrected by the absorbance at a wavelength of 620 nm: A450-A620) was measured based on the reduction of the tetrazolium salt in the culture solution. Then, the cell viability was calculated according to a colorimetric method. In the test areas (test areas 1 to 3) in the peptide addition area, the cell viability of each of the above five types of cell lines was calculated as a relative value when a measured value (measurement absorbance) of the comparative test area in the same cell lines was set as 100%. That is, regarding each of the above five types of cell lines, the cell viability (%) was calculated by dividing the measurement absorbance of the test areas (test areas 1 to 3) in the peptide addition area by the measurement absorbance of the comparative test area in the same cell lines and multiplying by 100.

With “MACLGFQRHKAQLNLATRTWPCTLLFFLLFIPVFCKKRTLRKTDRKKR-NH2 (cysteines drawn unpaired) [Sample 1]”, the “Specific cell viability of test tumor cells” value (MDA-MB-231, 12.5 μM Sample 1, (cell viability of test tumor cells)/(cell viability of MCF-12F cells)×100) is 47.9. Besides, the “Cell viability (%) of test cells” value reads like this: (6.25 μM) 67.8%; (12.5 μM) 54.7%; (25 μM) 41.6%.
